In PubChem BioAssay (NCI):
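Growth conditions: 96-well plates. Treatment: test compound, 48 hours, 5 concentrations. Analysis: linear interpolation between bracketing concentrations; unreached endpoints set to highest concentration. Abbreviation: GI50, concentration required for 50% inhibition of growth. The concentration for full growth arrest is given as TGI.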

Experiments:
Experiment in all cases: NCI tumour cell line growth inhibition, 48 h
NCI-H23 lung = tested on: NCI-H23 lung
A498 renal = tested on: A498 renal
SK-MEL-28 melanoma = tested on: SK-MEL-28 melanoma
HS 578T breast = tested on: HS 578T breast
HOP-62 NSCLC = tested on: HOP-62 NSCLC
786-0 renal = tested on: 786-0 renal
SW-620 colon = tested on: SW-620 colon
CCRF-CEM leukemia = tested on: CCRF-CEM leukemia
SN12C renal = tested on: SN12C renal
NCI/ADR-RES ovarian = tested on: NCI/ADR-RES ovarian
COLO 205 colon = tested on: COLO 205 colon
OVCAR-3 ovarian = tested on: OVCAR-3 ovarian
HCC-2998 colon = tested on: HCC-2998 colon
SF-295 CNS = tested on: SF-295 CNS
HT29 colon = tested on: HT29 colon
OVCAR-4 ovarian = tested on: OVCAR-4 ovarian
HCT-15 colon = tested on: HCT-15 colon
MDA-MB-231 breast = tested on: MDA-MB-231 breast
T-47D breast = tested on: T-47D breast
BT-549 breast = tested on: BT-549 breast
IGROV1 ovarian = tested on: IGROV1 ovarian
SF-539 CNS = tested on: SF-539 CNS
LOX IMVI melanoma = tested on: LOX IMVI melanoma
OVCAR-8 ovarian = tested on: OVCAR-8 ovarian
SNB-75 CNS = tested on: SNB-75 CNS
U251 CNS = tested on: U251 CNS
K-562 leukemia = tested on: K-562 leukemia
MDA-MB-435 = tested on: MDA-MB-435
KM12 colon = tested on: KM12 colon
M14 melanoma = tested on: M14 melanoma
SR leukemia = tested on: SR leukemia
A549 NSCLC = tested on: A549 NSCLC
MOLT-4 leukemia = tested on: MOLT-4 leukemia
RXF 393 renal = tested on: RXF 393 renal
DU-145 prostate = tested on: DU-145 prostate
UO-31 renal = tested on: UO-31 renal
SNB-19 CNS = tested on: SNB-19 CNS
TK-10 renal = tested on: TK-10 renal
UACC-257 melanoma = tested on: UACC-257 melanoma
NCI-H460 lung = tested on: NCI-H460 lung
HL-60(TB) leukemia = tested on: HL-60(TB) leukemia
RPMI-8226 leukemia = tested on: RPMI-8226 leukemia
MALME-3M melanoma = tested on: MALME-3M melanoma
HCT-116 colon = tested on: HCT-116 colon
MCF7 breast = tested on: MCF7 breast
CAKI-1 renal = tested on: CAKI-1 renal
SK-OV-3 ovarian = tested on: SK-OV-3 ovarian
OVCAR-5 ovarian = tested on: OVCAR-5 ovarian
UACC-62 melanoma = tested on: UACC-62 melanoma
HOP-92 NSCLC = tested on: HOP-92 NSCLC
PC-3 prostate = tested on: PC-3 prostate
NCI-H522 lung = tested on: NCI-H522 lung
EKVX NSCLC = tested on: EKVX NSCLC
ACHN renal = tested on: ACHN renal
SK-MEL-5 melanoma = tested on: SK-MEL-5 melanoma
SK-MEL-2 melanoma = tested on: SK-MEL-2 melanoma
NCI-H226 lung = tested on: NCI-H226 lung
SF-268 CNS = tested on: SF-268 CNS

Compound `NC(=O)c1cc(I)ccc1NC(=O)/C=C/c1ccccc1Cl` has a GI50 (NCI-H23 lung) of 1070 nM, a TGI (NCI-H23 lung) of 19600 nM and a GI50 (A498 renal) of 483 nM. For the same compound, the TGI (A498 renal) was 8010 nM, the GI50 (SK-MEL-28 melanoma) was 374 nM and the TGI (SK-MEL-28 melanoma) was 21800 nM. The GI50 (HS 578T breast) was 340 nM, the TGI (HS 578T breast) was 2190 nM and the GI50 (HOP-62 NSCLC) was 4900 nM. The TGI (HOP-62 NSCLC) was 33500 nM, the GI50 (786-0 renal) was 770 nM and the TGI (786-0 renal) was 20000 nM. The GI50 (SW-620 colon) was 462 nM, the TGI (SW-620 colon) was > 39600 nM and the GI50 (CCRF-CEM leukemia) was 363 nM. The GI50 (SN12C renal) was 1320 nM, the TGI (SN12C renal) was 36700 nM and the GI50 (NCI/ADR-RES ovarian) was 506 nM. It also gave a TGI (NCI/ADR-RES ovarian) of 4650 nM, a GI50 (COLO 205 colon) of 651 nM and a TGI (COLO 205 colon) of 5700 nM. The GI50 (OVCAR-3 ovarian) was 271 nM, the TGI (OVCAR-3 ovarian) was 638 nM and the GI50 (HCC-2998 colon) was 969 nM. The TGI (HCC-2998 colon) was 5610 nM, the GI50 (SF-295 CNS) was 592 nM and the TGI (SF-295 CNS) was 19000 nM. For the same compound, the GI50 (HT29 colon) was 362 nM, the TGI (HT29 colon) was 14500 nM and the GI50 (OVCAR-4 ovarian) was 2260 nM. The TGI (OVCAR-4 ovarian) was 67700 nM, the GI50 (HCT-15 colon) was 657 nM and the TGI (HCT-15 colon) was > 68300 nM. It also gave a GI50 (MDA-MB-231 breast) of 1630 nM, a TGI (MDA-MB-231 breast) of 31900 nM and a GI50 (T-47D breast) of 3130 nM. The TGI (T-47D breast) was > 90800 nM, the GI50 (BT-549 breast) was 816 nM and the TGI (BT-549 breast) was 94700 nM. It also gave a GI50 (IGROV1 ovarian) of 352 nM, a TGI (IGROV1 ovarian) of 16900 nM and a GI50 (SF-539 CNS) of 410 nM. The TGI (SF-539 CNS) was 2830 nM, the GI50 (LOX IMVI melanoma) was 1820 nM and the TGI (LOX IMVI melanoma) was 98700 nM. For the same compound, the GI50 (OVCAR-8 ovarian) was 3000 nM, the TGI (OVCAR-8 ovarian) was > 38800 nM and the GI50 (SNB-75 CNS) was 995 nM. The TGI (SNB-75 CNS) was 25300 nM, the GI50 (U251 CNS) was 578 nM and the TGI (U251 CNS) was 19500 nM. It also gave a GI50 (K-562 leukemia) of 313 nM, a TGI (K-562 leukemia) of 3430 nM and a GI50 (MDA-MB-435) of 204 nM. It also gave a TGI (MDA-MB-435) of 578 nM, a GI50 (KM12 colon) of 442 nM and a TGI (KM12 colon) of 4900 nM. It also gave a GI50 (M14 melanoma) of 621 nM, a TGI (M14 melanoma) of 24800 nM and a GI50 (SR leukemia) of 260 nM. The TGI (SR leukemia) was 952 nM, the GI50 (A549 NSCLC) was 1180 nM and the TGI (A549 NSCLC) was 25200 nM. For the same compound, the GI50 (MOLT-4 leukemia) was 765 nM, the GI50 (RXF 393 renal) was 375 nM and the TGI (RXF 393 renal) was 2180 nM. It also gave a GI50 (DU-145 prostate) of 837 nM, a TGI (DU-145 prostate) of 5640 nM and a GI50 (UO-31 renal) of 1790 nM. For the same compound, the TGI (UO-31 renal) was 31800 nM, the GI50 (SNB-19 CNS) was 869 nM and the TGI (SNB-19 CNS) was > 47200 nM. The GI50 (TK-10 renal) was 2480 nM, the GI50 (UACC-257 melanoma) was 38700 nM and the TGI (UACC-257 melanoma) was > 100000 nM. For the same compound, the GI50 (NCI-H460 lung) was 413 nM, the TGI (NCI-H460 lung) was 4700 nM and the GI50 (HL-60(TB) leukemia) was 158 nM. The TGI (HL-60(TB) leukemia) was 631 nM, the GI50 (RPMI-8226 leukemia) was 504 nM and the TGI (RPMI-8226 leukemia) was 4660 nM. It also gave a GI50 (MALME-3M melanoma) of 211 nM, a TGI (MALME-3M melanoma) of 17600 nM and a GI50 (HCT-116 colon) of 465 nM. It also gave a TGI (HCT-116 colon) of 11900 nM, a GI50 (MCF7 breast) of 333 nM and a TGI (MCF7 breast) of 25700 nM. The GI50 (CAKI-1 renal) was 405 nM, the TGI (CAKI-1 renal) was 3780 nM and the GI50 (SK-OV-3 ovarian) was 529 nM. It also gave a TGI (SK-OV-3 ovarian) of 14900 nM, a GI50 (OVCAR-5 ovarian) of 3800 nM and a TGI (OVCAR-5 ovarian) of 37200 nM. It also gave a GI50 (UACC-62 melanoma) of 312 nM, a TGI (UACC-62 melanoma) of 48700 nM and a GI50 (HOP-92 NSCLC) of 7220 nM. The TGI (HOP-92 NSCLC) was 36400 nM, the GI50 (PC-3 prostate) was 572 nM and the TGI (PC-3 prostate) was > 35400 nM. It also gave a GI50 (NCI-H522 lung) of 334 nM, a TGI (NCI-H522 lung) of 1640 nM and a GI50 (EKVX NSCLC) of 1330 nM. The TGI (EKVX NSCLC) was > 69000 nM, the GI50 (ACHN renal) was 2440 nM and the TGI (ACHN renal) was > 73600 nM. The GI50 (SK-MEL-5 melanoma) was 366 nM, the TGI (SK-MEL-5 melanoma) was 13000 nM and the GI50 (SK-MEL-2 melanoma) was 628 nM. The TGI (SK-MEL-2 melanoma) was 30100 nM, the GI50 (NCI-H226 lung) was 1610 nM and the TGI (NCI-H226 lung) was > 60600 nM. The GI50 (SF-268 CNS) was 640 nM and the TGI (SF-268 CNS) was 31000 nM.
